Like-named read-outs stand apart in the source and are kept apart here.
Legend:
TNFα = test: cells; type: cell-based, human; conditions: LPS-stimulated human monocytes, read-out: EC50 TNF
IRAK4 enzyme = IRAK4 enzyme (Homo sapiens (Human), UniProt Q9NWZ3); test: biochemical; type: biochemical; conditions: IRAK4 enzyme, 500 μM ATP
[1] = Homo sapiens, Monocyte, TNFα content

IRAK4 enzyme, sequence (Q9NWZ3 whole entry): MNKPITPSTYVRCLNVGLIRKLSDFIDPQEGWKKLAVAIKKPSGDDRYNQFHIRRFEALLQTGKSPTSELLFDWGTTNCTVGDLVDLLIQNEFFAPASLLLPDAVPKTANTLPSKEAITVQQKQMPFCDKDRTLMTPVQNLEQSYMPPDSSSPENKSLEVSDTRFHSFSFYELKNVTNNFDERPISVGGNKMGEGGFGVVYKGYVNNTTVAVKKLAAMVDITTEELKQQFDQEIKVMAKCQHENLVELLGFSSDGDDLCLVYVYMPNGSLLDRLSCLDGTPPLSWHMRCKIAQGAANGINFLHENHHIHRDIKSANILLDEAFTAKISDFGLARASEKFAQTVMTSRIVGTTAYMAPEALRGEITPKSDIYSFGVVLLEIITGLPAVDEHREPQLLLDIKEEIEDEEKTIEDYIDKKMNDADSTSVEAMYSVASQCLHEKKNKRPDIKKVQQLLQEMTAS

Compound	EC50 (TNFα; TNFα content) [nM]	EC50 (TNFα; [1]) [nM]	IC50 (IRAK4 enzyme; TR-FRET (HTRF)) [nM]	also measured
6-(3-cyanopyrrolo[1,2- b]pyridazin-7-yl)-N-((R)- 2-fluoro-3-hydroxy-3- methylbutyl)-4-(((1s,3S)-3- hydroxyadamantan-1- yl)amino)nicotinamide [Example 525]	11	–	–	–
6-(3-cyanopyrrolo[1,2-b]pyridazin-7-yl)-N-(2-(hydroxymethyl)cyclopropyl)-4-(isopropylamino)nicotinamide [Example 19]	926	–	–	–
CC(C)Nc1cc(-c2ccc3cc(C#N)cnn23)ncc1C(=O)NC1CC1CO (single isomer, unassigned) [Example 18, 6-(3-cyanopyrrolo[1,2-b]pyridazin-7-yl)-N-(2-(hydroxymethyl)cyclopropyl)-4-(isopropylamino)nicotinamide]	–	757	–	IC50 (IRAK4 enzyme; TR-FRET): 9 nM
CC(C)(O)[C@H](F)CNC(=O)c1cnc(-c2ccc3cc(C#N)cnn23)cc1NC1C2CNCC1C2 (single isomer, unassigned) [Example 25]	–	116	–	IC50 (IRAK4 enzyme; TR-FRET): 2 nM
CC(C)(O)[C@H](F)CNC(=O)c1cnc(-c2ccc3cc(C#N)cnn23)cc1NC1C2CNCC1C2 (single isomer, unassigned) [Example 26]	182	–	–	IC50 (IRAK4 enzyme; TR-FRET): 3 nM
CC(C)(O)[C@H](F)CNC(=O)c1cnc(-c2ccc3cc(C#N)cnn23)cc1NC1C2CCC1CNC2 (single isomer, unassigned) [Example 27]	–	175	–	IC50 (IRAK4 enzyme; TR-FRET): 2 nM
CC(C)(O)[C@H](F)CNC(=O)c1cnc(-c2ccc3cc(C#N)cnn23)cc1NC1C2CCC1CNC2 (single isomer, unassigned) [Example 28]	109	–	–	IC50 (IRAK4 enzyme; TR-FRET): < 1 nM
CC(C)(O)[C@H](F)CNC(=O)c1cnc(-c2ccc3cc(C#N)cnn23)cc1NC1CC1CO (single isomer, unassigned) [Example 302]	–	61	–	IC50 (IRAK4 enzyme; TR-FRET): 1 nM
CC(C)(O)[C@H](F)CNC(=O)c1cnc(-c2ccc3cc(C#N)cnn23)cc1NC1CCCC(S(C)(=O)=O)C1 (single isomer, unassigned) [Example 515]	–	526	5	–
CC(C)(O)[C@H](F)CNC(=O)c1cnc(-c2ccc3cc(C#N)cnn23)cc1NC1CCCC(S(C)(=O)=O)C1 (single isomer, unassigned) [Example 516]	595	–	2	–
CC(C)(O)[C@H](F)CNC(=O)c1cnc(-c2ccc3cc(C#N)cnn23)cc1NC1CCCC(S(C)(=O)=O)C1 (single isomer, unassigned) [Example 517]	484	–	< 1	–
CC1(O)CCCC(Nc2cc(-c3ccc4cc(C#N)cnn34)ncc2C(=O)NC[C@@H](F)C(C)(C)O)C1 (single isomer, unassigned) [Example 528]	–	65	1	–
CC1(O)CCCC(Nc2cc(-c3ccc4cc(C#N)cnn34)ncc2C(=O)NC[C@@H](F)C(C)(C)O)C1 (single isomer, unassigned) [Example 529]	62	–	1	–
CC(C)(O)[C@H](F)CNC(=O)c1cnc(-c2ccc3cc(C#N)cnn23)cc1NC1CC(Cc2cnco2)C1 (single isomer, unassigned) [Example 638]	26	–	< 1	–
CC(C)(O)[C@H](F)CNC(=O)c1cnc(-c2ccc3cc(C#N)cnn23)cc1NC1CC(Cc2cnco2)C1 (single isomer, unassigned) [Example 640]	117	–	1	–
Cc1ncc(C2CCC(Nc3cc(-c4ccc5cc(C#N)cnn45)ncc3C(=O)NC[C@@H](F)C(C)(C)O)CC2)o1 (single isomer, unassigned) [Example 645]	301	–	10	–
Cc1ncc(C2CCC(Nc3cc(-c4ccc5cc(C#N)cnn45)ncc3C(=O)NC[C@@H](F)C(C)(C)O)CC2)o1 (single isomer, unassigned) [Example 646]	15	–	< 1	–
CC(C)(O)[C@H](F)CNC(=O)c1cnc(-c2ccc3cc(C#N)cnn23)cc1NC1Cc2ccncc2C1 (single isomer, unassigned) [Example 676]	–	81	1	–
CC(C)(O)[C@H](F)CNC(=O)c1cnc(-c2ccc3cc(C#N)cnn23)cc1NC1Cc2ccncc2C1 (single isomer, unassigned) [Example 677]	54	–	< 1	–
CC(C)(O)[C@H](F)CNC(=O)c1cnc(-c2ccc3cc(C#N)cnn23)cc1NC1CCC(C)(N2CCOCC2)CC1 (single isomer, unassigned) [Example 690]	71	–	1	–

Compound	EC50 (TNFα; TNFα content) [nM]	EC50 (TNFα; [1]) [nM]	IC50 (IRAK4 enzyme; TR-FRET (HTRF)) [nM]	also measured
CC(C)(O)[C@H](F)CNC(=O)c1cnc(-c2ccc3cc(C#N)cnn23)cc1NC1CCC(C)(N2CCOCC2)CC1 (single isomer, unassigned) [Example 691]	345	–	5	–
COC(=O)NC1CC2(C1)CC(Nc1cc(-c3ccc4cc(C#N)cnn34)ncc1C(=O)NC[C@@H](F)C(C)(C)O)C2 (single isomer, unassigned) [Example 756]	59	–	1	–
COC(=O)NC1CC2(C1)CC(Nc1cc(-c3ccc4cc(C#N)cnn34)ncc1C(=O)NC[C@@H](F)C(C)(C)O)C2 (single isomer, unassigned) [Example 757]	12	–	< 1	–
CC(C)Nc1cc(-c2ccc3cc(C#N)cnn23)ncc1C(=O)NC1(C)COC1 [Example 35, 6-(3-cyanopyrrolo[1,2-b]pyridazin-7-yl)-4-(isopropyl-amino)-N-(3-methyloxetan-3-yl) nicotinamide]	–	–	–	IC50 (IRAK4 enzyme; TR-FRET): 3 nM
CC(C)(O)[C@H](F)CNC(=O)c1cnc(-c2ccc3cc(C#N)cnn23)cc1NC1(CO)CC1 [Example 51, (R)-6-(3-cyanopyrrolo[1,2-b]pyridazin-7-yl)-N-(2-fluoro-3-hydroxy-3-methylbutyl)-4-((1-(hydroxymethyl)cyclopropyl)amino)nicotinamide]	–	159	–	–
CC(C)Nc1cc(-c2ccc3cc(C#N)cnn23)ncc1C(=O)NCCC1COC1 [Example 52, 6-(3-cyanopyrrolo[1,2-b]pyridazin-7-yl)-4-(isopropylamino)-N-(2-(oxetan-3-yl)ethyl) nicotinamide]	–	86	–	–
CC(C)(O)[C@H](F)CNC(=O)c1cnc(-c2ccc3cc(C#N)cnn23)cc1NC1CC1 [Example 55, (R)-6-(3-cyanopyrrolo[1,2-b]pyridazin-7-yl)-4-(cyclopropylamino)-N-(2-fluoro-3-hydroxy-3-methylbutyl) nicotinamide]	–	28	–	–
CC(C)(O)[C@H](F)CNC(=O)c1cnc(-c2ccc3cc(C#N)cnn23)cc1NCCS(C)(=O)=O [Example 102, (R)-6-(3-cyanopyrrolo[1,2-b]pyridazin-7-yl)-N-(2-fluoro-3-hydroxy-3-methylbutyl)-4-((2-(methylsulfonyl)ethyl)amino) nicotinamide]	–	313	–	–
CC(C)(O)[C@H](F)CNC(=O)c1cnc(-c2ccc3cc(C#N)cnn23)cc1Nc1nc2ccccc2s1 [Example 377]	–	426	–	–
CNc1cc(-c2ccc3cc(C#N)cnn23)ncc1C(=O)NC[C@@H](F)C(C)(C)O [Example 379, (R)-6-(3-cyanopyrrolo[1,2-b]pyridazin-7-yl)-N-(2-fluoro-3-hydroxy-3-methylbutyl)-4-(methyl-amino)nicotinamide]	–	57	–	–
N#Cc1cnn2c(-c3cc(N[C@H]4CCC[C@@H](O)C4)c(C(=O)NC4CCC(F)(F)CC4)cn3)ccc2c1 [Example 431, 6-(3-cyanopyrrolo[1,2-b]pyridazin-7-yl)-N-(4,4-difluorocyclohexyl)-4-(((1S,3R)-3-hydroxy-cyclohexyl)amino) nicotinamide]	–	441	–	–
Cn1cc(Nc2cc(-c3ccc4cc(C#N)cnn34)ncc2C(=O)NC[C@@H](F)C(C)(C)O)ccc1=O [Example 441, (R)-6-(3-cyanopyrrolo[1,2-b]pyridazin-7-yl)-N-(2-fluoro-3-hydroxy-3-methylbutyl)-4-((1-methyl-6-oxo-1,6-dihydropyridin-3-yl)amino)nicotinamide]	–	1300	–	–
CC(=O)NCC(F)(F)CNC(=O)c1cnc(-c2ccc3cc(C#N)cnn23)cc1NC(C)C [Example 551, N-(3-acetamido-2,2-difluoropropyl)-6-(3-cyanopyrrolo[1,2-b]pyridazin-7-yl)-4-(isopropylamino)nicotinamide]	–	809	–	–
CC(C)(O)[C@H](F)CNC(=O)c1cnc(-c2ccc3cc(C#N)cnn23)cc1Nc1cccc(OC(F)(F)F)c1 [Example 607, (R)-6-(3-cyanopyrrolo[1,2-b]pyridazin-7-yl)-N-(2-fluoro-3-hydroxy-3-methylbu1yl)-4-((3-(trifluoromethoxy)phenyl)amino)nicotinamide]	–	1440	–	–
CNC(=O)OC[C@@H]1C[C@H]1Nc1cc(-c2ccc3cc(C#N)cnn23)ncc1C(=O)NC[C@@H](F)C(C)(C)O [Example 747]	–	169	–	–
CC(C)(O)[C@H](F)CNC(=O)c1cnc(-c2ccc3cc(C#N)cnn23)cc1Nc1ccc(-n2nccn2)cc1 [Example 774, (R)-4-((4-(2H-1,2,3-triazol-2-yl)phenyl)amino)-6-(3-cyanopyrrolo[1,2-b]pyridazin-7-yl)-N-(2-fluoro-3-hydroxy-3-methylbutyl)nicotinamide]	–	–	2	–
CC(C)(O)[C@H](F)CNC(=O)c1cnc(-c2ccc3cc(C#N)cnn23)cc1Nc1cncc(OCC(F)F)c1 [Example 852, (R)-6-(3-cyanopyrrolo[1,2-b]pyridazin-7-yl)-4-((5-(2,2-difluoroethoxy)pyridin-3-yl)amino)-N-(2-fluoro-3-hydroxy-3-methylbutyl) nicotinamide]	–	–	–	EC50 (TNFα; Homo sapiens, Monocyte, TNFα by TR-FRET): 3 nM
CC(C)(O)[C@H](F)CNC(=O)c1cnc(-c2ccc3cc(C#N)cnn23)cc1Nc1cnc(-c2cn[nH]c2)nc1 [Example 969, (R)-4-((2-(1H-pyrazol-4-yl)pyrimidin-5-yl)amino)-6-(3-cyanopyrrolo[1,2-b]pyridazin-7-yl)-N-(2-fluoro-3-hydroxy-3-methyl-butyl)nicotinamide]	–	–	–	IC50 (IRAK4 enzyme; TR-FRET): < 1 nM
(R)-4-((1H-benzo[d][1,2,3] triazol-5-yl)amino)-6-(3- cyanopyrrolo[1,2-b]pyridazin- 7-yl)-N-(2-fluoro-3- hydroxy-3-methylbutyl) nicotinamide [Example 569]	> 10000	–	–	–

Source: patent US10336762B2 (priority 2017, dated 2019)
